Measured values: paper PMC3876047, “Self/Co-Assembling Peptide, EAR8-II, as a Potential Carrier for a Hydrophobic Anticancer Drug Pirarubicin (THP)—Characterization and in-Vitro Delivery” (International Journal of Molecular Sciences, 2013)

How the values were obtained:
[1] = Solubilisation of THP in water and EAR8-II solution (appearance); type: physicochemical; details: visual appearance
Method: To determine a suitable concentration of required EAR8-II for THP encapsulation, different concentrations of EAR8-II, in a range of 0.05–1.0 mg/mL, were prepared and combined with THP at 0.1 mg/mL concentration in aqueous solution. Solubility of THP in water is very low, whereas it can be dissolved and stabilized in an EAR8-II solution at a minimum concentration of 0.2 mg/mL. […] However, at higher EAR8-II concentrations (0.2–0.6 mg/mL), THP molecules were fully dissolved, and consequently, a clear-transparent solution of the peptide-drug complexes formed. At much higher peptide concentrations (above 0.6 mg/mL), THP molecules were still fully soluble, but the excess amount of EAR8-II produced a cloudier solution, with clearly a higher particle size distribution. Note that amphiphilic features of EAR8-II, including the ionic and hydrophobic residues, stimulated binding with hydrophobic molecules of THP through protonation of NH2 to NH3^+ in THP molecules and hydrophobic interactions between alanine residues and aromatic rings in the THP structure. […] Both ionic and hydrophobic interactions are the possible main interactions of EAR8-II and THP, i.e., the protonation of THP in an acidic EAR8-II solution and hydrophobic interaction between THP and hydrophobic side chains of EAR8-II are the dominant forces in complexation of EAR8-II-THP. […]

[2] = system: HeLa cells; experiment: Cellular toxicity, CCK-8 assay, HeLa; type: cell-based, Human; details: 24 h
Method: (§1) All cell lines, purchased from Cedarlane (Burlington, ON, Canada), were used in the current study and cultured in their respective culture medium as follows: Human Cervical Adenocarcinoma: HeLa (CCL-2) in Eagle's Minimum Essential Medium (EMEM) (ATCC30-2003), Human lung cancer: A549 (CCL-185) in F-12 medium (ATCC30-2004). All medium solutions were prepared with 10% fetal bovine serum (FBS-[…]). Two human cancer cell lines, with 10^4 cells per well concentrations, were seeded in 96-well plates, followed by treatment with different peptide-drug complex ratios for 24 h. Cellular-toxicity experiments were performed with sensitive colorimetric assay called Cell counting kit-8 (CCK-8) (Dojindo Molecular Technologies, Inc. Burlington, ON, Canada). CCK-8 contains highly water-soluble tetrazolium salt (WST-8), which is reduced by dehydrogenase activities in cells to give the yellow color of the formazan dye, which is soluble in culture media. The amount of formazan dye is measured by absorption (O.D.) at 450 nm, which is directly proportional to the number of living cells.

[3] = system: A549 cells; experiment: Cellular toxicity, CCK-8 assay, A549; type: cell-based, Human; details: 24 h
Method: as §1

[4] = Dynamic light scattering, particle size of peptide and peptide-drug complexes; type: physicochemical; details: DLS, intensity-based, aqueous solution, EAR8-II 0.5 mg/mL, 25 °C, no drug
Method: EAR8-II peptide solutions in the concentration range of 0.05–2 mg/mL (0.0547–2.188 mM) were prepared by dissolving peptide lyophilized powder in Milli-Q (18.2 MΩ) water (EMD Millipore, Billerica, MA, USA) followed by bath sonicating for 10 min. Freshly prepared peptide solutions were added to THP to reach fixed [THP] concentrations at 0.1 mg/mL (0.159 mM), followed by mechanical stirring at 900 rpm for 24 h.
The particle size distribution and zeta potential of peptide-drug complexes at different peptide-to-drug ratios were measured by a Zetasizer Nano ZS (Malvern Instruments, Worcestershire, UK). Appropriate settings, viscosity, refractive index, and dispersant solvent were set for each measurement at 25 °C. A small 50 μL volume of the sample was transferred from the vial to a disposable solvent resistant micro cuvette (ZEN0040, Malvern, Worcestershire, UK). The scattered light intensities of the samples were collected at an angle of 173°. This was known as backscatter detection, i.e., the relationship between the size of a particle and its scattered light intensity obtained with the multimodal Contin algorithm, which was provided in the Dispersion Technology Software 5.1 package (Malvern Instruments, Worcestershire, UK).

[5] = Tapping mode atomic force microscopy of nanostructure; type: physicochemical; details: tapping mode AFM, EAR8-II 0.5 mg/mL
Method: Figure 2. Nanostructure of (A) EAR8-II and (C) EAR8-II-THP complex by tapping mode atomic force microscopy; Intensity-based particle size distribution of (B) EAR8-II and (D) EAR8-II-THP complex in aqueous solution by dynamic light scattering. EAR8-II concentration is 0.5 mg/mL, and THP concentration is 0.1 mg/mL.

[6] = Steady-state THP fluorescence, encapsulation of THP by EAR8-II; type: physicochemical; details: [THP] = 0.1 mg/mL, fluorescence excitation 480 nm / emission 590 nm, plateau of intensity
Method: The amount of protonated THP in EAR8-II is also determined by measuring the fluorescence intensity of the excitation and emission by THP at different EAR8-II concentrations. Protonated THP absorbs light at 480 nm, and emits light at 590–600 nm. Fluorescence intensity for both the excitation and emission spectra is proportional to the concentration of protonated THP stabilized in the peptide solution. Although the initial concentration of THP was constant in each complex, the amount of protonated THP varied due to the dependency of the THP encapsulation efficiency on peptide concentration.
The THP fluorescence emission spectra were acquired on a photon technology international spectrafluorometer (Type QM4-SE, London, ON, Canada) with a continuous xenon lamp as the light source. The emission spectra were collected in the wavelength range of 500–800 nm, while samples were excited at 480 nm. The maximum emission peak of THP is at a wavelength of 590–600 nm. […] The fluorescence intensity at 590 and 480 nm for emission and excitation were obtained by taking the average of twenty points of fluorescence intensity, respectively. Each fluorescence spectrum was divided by lamp intensity to account for eventual lamp fluctuations. The normalized fluorescence intensity for both emission and excitation spectra at 590 and 480 nm was plotted for various peptide-to-drug ratios.

Compound | solubility of THP in water ([1]; water, no peptide, THP 0.1 mg/mL, stirring 24 h) | cellular viability ([2]; THP at 38 μM in water, no peptide) [%] | cellular toxicity in absence of peptide ([2]; THP control without peptide) | cellular viability ([3]; A549, THP at 38 μM in water, no peptide) [%] | cellular toxicity in absence of peptide ([3]; A549, THP control without peptide) | minimum EAR8-II concentration at which THP is dissolved and stabilized ([1]; aqueous solution, [THP] = 0.1 mg/mL, stirring at 900 rpm 24 h) [mg/mL] | hydrodynamic diameter of aggregates [4] | average height of self-assembled fibres [5] [nm] | average width of self-assembled fibres [5] [nm] | minimum concentration of peptide required to fully encapsulate THP [6]
COc1cccc2c1C(=O)c1c(O)c3c(c(O)c1C2=O)C[C@@](O)(C(=O)CO)C[C@@H]3O[C@H]1C[C@H](N)[C@H](O[C@@H]2CCCCO2)[C@H](C)O1 [THP, 4-O-tetrahydropyranyladriamycin] | very low | 29.58 ± 3.69 | non-significant cellular toxicity | 64.9 ± 6.4 | non-significant cellular toxicity |  |  |  |  | 
Ac-AEAEARAR-NH2 [EAR8-II, Ac-AEAEARAR-NH2] |  |  |  |  |  | 0.2 | ~ 500 nm | 15 | 10 | ~ 0.5 mg/mL
